This note sets out measurements from patent publication US10479784B2, “Substituted pyrazin-2-amines as inhibitors of ATR kinase” (Vertex Pharmaceuticals Incorporated, priority 2008, dated 2019).

The target of one test is full-length ATR (Homo sapiens (Human), UniProt Q13535). In words: ATR Inhibition Assay (radioactive-phosphate incorporation). In kind it is biochemical. The essentials: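 Full-length human ATR (5 nM) was assayed at 25 °C in 50 mM Tris/HCl pH 7.5, 10 mM MgCl2, 1 mM DTT, with 10 μM [γ-33P]ATP and 800 μM peptide, after 10-min compound preincubation. Reactions were stopped after 24 h, captured on phosphocellulose and counted; Ki(app) came from non-linear regression of initial rates.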
Chain of full-length ATR (Q13535 whole entry): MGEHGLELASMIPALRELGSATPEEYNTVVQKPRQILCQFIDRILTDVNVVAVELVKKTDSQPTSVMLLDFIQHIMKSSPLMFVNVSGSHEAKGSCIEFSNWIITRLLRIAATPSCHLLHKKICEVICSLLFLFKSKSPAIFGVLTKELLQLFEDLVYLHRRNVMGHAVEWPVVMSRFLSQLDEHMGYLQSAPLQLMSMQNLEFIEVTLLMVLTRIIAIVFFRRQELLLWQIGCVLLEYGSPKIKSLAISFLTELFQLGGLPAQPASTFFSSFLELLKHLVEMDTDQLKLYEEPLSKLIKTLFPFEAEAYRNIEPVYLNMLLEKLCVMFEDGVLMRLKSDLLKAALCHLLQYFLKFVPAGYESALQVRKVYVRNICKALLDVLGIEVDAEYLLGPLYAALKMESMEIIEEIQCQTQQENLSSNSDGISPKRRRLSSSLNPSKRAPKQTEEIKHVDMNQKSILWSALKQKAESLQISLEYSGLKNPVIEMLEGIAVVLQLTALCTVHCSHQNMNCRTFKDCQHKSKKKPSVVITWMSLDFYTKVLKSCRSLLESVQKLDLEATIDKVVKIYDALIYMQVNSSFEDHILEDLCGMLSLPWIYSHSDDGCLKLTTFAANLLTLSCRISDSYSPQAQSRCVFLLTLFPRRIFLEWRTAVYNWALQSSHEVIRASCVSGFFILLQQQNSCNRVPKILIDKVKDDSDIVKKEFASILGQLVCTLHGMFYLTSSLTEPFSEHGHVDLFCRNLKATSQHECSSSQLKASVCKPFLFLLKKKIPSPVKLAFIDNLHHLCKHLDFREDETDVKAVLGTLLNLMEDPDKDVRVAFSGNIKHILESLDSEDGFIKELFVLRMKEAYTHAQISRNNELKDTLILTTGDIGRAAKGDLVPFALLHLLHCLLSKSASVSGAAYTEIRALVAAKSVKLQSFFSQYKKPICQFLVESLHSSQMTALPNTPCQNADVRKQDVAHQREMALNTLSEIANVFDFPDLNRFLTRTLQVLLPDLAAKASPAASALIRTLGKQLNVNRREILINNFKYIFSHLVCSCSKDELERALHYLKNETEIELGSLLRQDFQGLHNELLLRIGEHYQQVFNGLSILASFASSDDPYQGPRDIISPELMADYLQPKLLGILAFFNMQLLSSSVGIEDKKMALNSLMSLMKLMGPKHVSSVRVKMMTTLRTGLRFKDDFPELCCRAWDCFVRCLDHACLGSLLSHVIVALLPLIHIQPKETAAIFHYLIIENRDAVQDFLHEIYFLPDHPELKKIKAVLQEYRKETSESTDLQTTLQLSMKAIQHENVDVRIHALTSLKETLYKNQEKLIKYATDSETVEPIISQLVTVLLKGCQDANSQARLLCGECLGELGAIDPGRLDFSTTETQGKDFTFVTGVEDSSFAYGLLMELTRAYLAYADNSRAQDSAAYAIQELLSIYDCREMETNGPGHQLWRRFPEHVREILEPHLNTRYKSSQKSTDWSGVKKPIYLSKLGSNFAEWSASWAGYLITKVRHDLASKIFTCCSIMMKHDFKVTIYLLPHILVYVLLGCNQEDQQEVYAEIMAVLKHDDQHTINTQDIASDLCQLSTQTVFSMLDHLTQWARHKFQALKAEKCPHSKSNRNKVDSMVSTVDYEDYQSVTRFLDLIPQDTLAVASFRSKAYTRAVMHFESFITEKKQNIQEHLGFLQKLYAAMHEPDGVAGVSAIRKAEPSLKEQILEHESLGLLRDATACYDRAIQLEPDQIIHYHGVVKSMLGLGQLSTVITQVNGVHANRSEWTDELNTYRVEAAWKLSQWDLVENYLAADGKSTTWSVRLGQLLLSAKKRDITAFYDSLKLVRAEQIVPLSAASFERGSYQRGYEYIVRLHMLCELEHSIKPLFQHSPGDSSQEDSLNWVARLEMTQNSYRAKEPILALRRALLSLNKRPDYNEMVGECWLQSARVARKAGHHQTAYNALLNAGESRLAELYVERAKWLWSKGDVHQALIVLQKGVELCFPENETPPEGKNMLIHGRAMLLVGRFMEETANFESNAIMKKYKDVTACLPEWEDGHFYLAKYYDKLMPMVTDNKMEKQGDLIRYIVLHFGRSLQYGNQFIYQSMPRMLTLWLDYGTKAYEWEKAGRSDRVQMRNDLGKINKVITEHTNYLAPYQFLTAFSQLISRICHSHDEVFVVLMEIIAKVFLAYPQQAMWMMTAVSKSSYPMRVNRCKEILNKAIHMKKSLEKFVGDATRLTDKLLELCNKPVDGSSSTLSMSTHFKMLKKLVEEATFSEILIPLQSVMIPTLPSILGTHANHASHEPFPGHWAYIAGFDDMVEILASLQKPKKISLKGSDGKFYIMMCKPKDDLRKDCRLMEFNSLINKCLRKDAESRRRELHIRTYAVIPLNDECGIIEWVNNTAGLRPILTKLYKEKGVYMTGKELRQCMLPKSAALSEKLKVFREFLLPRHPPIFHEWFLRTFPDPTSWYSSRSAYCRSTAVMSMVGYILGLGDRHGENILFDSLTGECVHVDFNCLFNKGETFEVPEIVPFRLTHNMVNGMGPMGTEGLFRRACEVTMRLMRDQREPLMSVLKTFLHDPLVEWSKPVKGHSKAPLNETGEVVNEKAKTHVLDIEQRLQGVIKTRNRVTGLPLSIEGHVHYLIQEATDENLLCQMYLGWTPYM

Test [1] concerns HCT116 colorectal cancer cells. In words: Cisplatin Sensitization Assay (96 h MTS cell viability). In kind it is cell-based. Conditions: concentration of compound required to reduce the IC50 of Cisplatin alone by at least 3-fold. As for the experimental part:
(§1) Compounds were screened for their ability to sensitize HCT116 colorectal cancer cells to Cisplatin using a 96 h cell viability (MTS) assay. […] Compounds and Cisplatin were then both added simultaneously to the cell media in 2-fold serial dilutions from a top final concentration of 10 μM as a full matrix of concentrations in a final cell volume of 200 μl, and the cells were then incubated at 37° C. in 5% CO2. After 96 h, 40 μl of MTS reagent (Promega G358a) was added to each well and the cells were incubated for 1 h at 37° C. in 5% CO2.

The next test deals with intracellular ATR (Homo sapiens (Human), UniProt Q13535). The test is described as follows: Cellular ATR Inhibition Assay (H2AX phosphorylation in hydroxyurea treated HT29 cells). The test is classed as cell-based. Conditions: 2 mM hydroxyurea, phosphorylated H2AX-positive nuclei. As for the experimental part: Compounds can be screened for their ability to inhibit intracellular ATR using an immunofluorescence microscopy assay to detect phosphorylation of the ATR substrate histone H2AX in hydroxyurea treated cells. HT29 cells are plated at 14,000 cells per well in 96-well black imaging plates (BD 353219) in McCoy's 5 A media (Sigma M8403) supplemented with 10% foetal bovine serum (JRH Biosciences 12003), Penicillin/Streptomycin solution diluted 1:100 (Sigma P7539), and 2 mM L-glutamine (Sigma G7513), and allowed to adhere overnight at 37° C. in 5% CO2. Compounds are then added to the cell media from a final concentration of 25 μM in 3-fold serial dilutions and the cells are incubated at 37° C. in 5% CO2. After 15 min, hydroxyurea (Sigma H8627) is added to a final concentration of 2 mM.
Chain of intracellular ATR (Q13535 whole entry): as above
Chain of intracellular ATR (Q8WXE1 whole entry partner): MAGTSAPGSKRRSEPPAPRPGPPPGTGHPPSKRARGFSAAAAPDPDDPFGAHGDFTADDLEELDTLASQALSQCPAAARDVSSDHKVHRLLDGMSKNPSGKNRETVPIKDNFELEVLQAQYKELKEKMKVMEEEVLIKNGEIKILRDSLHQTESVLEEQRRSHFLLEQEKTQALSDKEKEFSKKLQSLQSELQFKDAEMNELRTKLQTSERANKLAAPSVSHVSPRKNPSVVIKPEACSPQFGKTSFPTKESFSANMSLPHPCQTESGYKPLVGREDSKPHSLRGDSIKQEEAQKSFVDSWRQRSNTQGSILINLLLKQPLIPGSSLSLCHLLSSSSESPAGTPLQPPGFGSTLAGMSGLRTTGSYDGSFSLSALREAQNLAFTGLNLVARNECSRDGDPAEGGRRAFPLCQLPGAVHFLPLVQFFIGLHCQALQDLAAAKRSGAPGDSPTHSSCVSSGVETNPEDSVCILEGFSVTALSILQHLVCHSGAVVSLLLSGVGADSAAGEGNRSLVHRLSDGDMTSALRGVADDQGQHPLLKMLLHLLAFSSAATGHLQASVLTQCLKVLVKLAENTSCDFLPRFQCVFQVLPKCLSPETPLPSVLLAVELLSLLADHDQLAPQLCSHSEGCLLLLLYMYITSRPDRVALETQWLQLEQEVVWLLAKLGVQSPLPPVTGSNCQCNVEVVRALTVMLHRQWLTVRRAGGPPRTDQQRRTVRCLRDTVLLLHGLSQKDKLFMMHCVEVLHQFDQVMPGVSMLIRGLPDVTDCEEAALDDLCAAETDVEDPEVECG
After 45 min of treatment with hydroxyurea, the cells are washed in PBS, fixed for 10 min in 4% formaldehyde diluted in PBS (Polysciences Inc 18814), washed in 0.2% Tween-20 in PBS (wash buffer), and permeabilised for 10 min in 0.5% Triton X-100 in PBS, all at room temperature. The cells are then washed once in wash buffer and blocked for 30 min at room temperature in 10% goat serum (Sigma G9023) diluted in wash buffer (block buffer). […]
Cells are imaged for Alexa Fluor 488 and Hoechst intensity using the BD Pathway 855 Bioimager and Attovision software (BD Biosciences, Version 1.6/855) to quantify phosphorylated H2AX Ser139 and DNA staining, respectively. The percentage of phosphorylated H2AX-positive nuclei in a montage of 9 images at 20× magnification is then calculated for each well using BD Image Data Explorer software (BD Biosciences Version 2.2.15). […] The percentage of H2AX positive nuclei is finally plotted against concentration for each compound and IC50s for intracellular ATR inhibition are determined using Prism software(GraphPad Prism version 3.0cx for Macintosh, GraphPad Software, San Diego Calif., USA).

In test [2] the test system is HCT116 colorectal cancer cells. The test is described as follows: HCT116 cell viability (MTS), compound alone. In kind it is cell-based. Conditions: Homo sapiens, HCT-116, 96 h, read-out: HTC116 (MTS) IC50. As for the experimental part: as §1
[3] abbreviates: 5 nM full-length ATR, 10 μM ATP, Ki(app), read-out: ATR Inhibition Assay Ki.

Structures are written as SMILES. Read-outs that look alike come from different tables or passages of the source. Where only a bound is given, the exact number is not on record here.

Usually IC50 stands for the concentration that gives 50% inhibition. With `CS(=O)(=O)c1ccc(-c2cnc(N)c(C(=O)Nc3ccccc3)n2)cc1` [Compound I-82, 3-amino-6-(4-(methylsulfonyl)phenyl)-N-phenylpyrazine-2-carboxamide], the Ki on full-length ATR (setting [3]) was not above 100 nM; at full-length ATR (read-out: ATR Ki), 10 to 100 nM. Moreover, the “Synergy with Cisplatin (uM)” value in test [1] is given as “++ (Compounds with an IC50 or Ki value >100 nM but ≤1 uM are marked with “++.”)”. The IC50 (against intracellular ATR; in test [2]) was 1000 to 20000 nM throughout.
As for `CNCc1ccc(-c2nnc(-c3nc(-c4ccc(S(=O)(=O)C(C)C)cc4)cnc3N)o2)cc1` [IA-159, 5-(4-isopropylsulfonylphenyl)-3-[5-[4-(methylaminomethyl)phenyl]-1,3,4-oxadiazol-2-yl]pyrazin-2-amine], the Ki on full-length ATR (setting [3]) is not above 100 nM; at full-length ATR (read-out: ATR Ki), not above 10 nM. In test [1], the “Synergy with Cisplatin (uM)” value was “+++ (Compounds with an IC50 or Ki value of ≤100 nM are marked with “+++.”)”. Besides, the IC50 was not above 100 nM at intracellular ATR and 100 to 1000 nM in test [2].
Regarding `CC(O)CNCc1ccc(-c2cc(-c3nc(-c4ccc(S(=O)(=O)C(C)C)cc4)cnc3N)on2)cc1` (stereo not drawn) [IIA-11, 1-(4-(5-(3-amino-6-(4-(isopropylsulfonyl)phenyl)pyrazin-2-yl)isoxazol-3-yl)benzylamino)propan-2-ol], the results for the Ki at full-length ATR (setting [3]) and on full-length ATR (read-out: ATR Ki) were not above 100 nM and not above 10 nM, respectively. The “Synergy with Cisplatin (uM)” value in test [1] is “+++ (Compounds with an IC50 or Ki value of ≤100 nM are marked with “+++.”)”. Moreover, the IC50 on intracellular ATR is not above 100 nM; in test [2], 100 to 1000 nM.
